For 15 molecules, EC50 and IC50 results are on record in US10421761B2, “Compounds for kinase modulation, and indications therefor” (Plexxikon Inc., priority 2013, dated 2019).

Like-named read-outs stand apart in the source and are kept apart here. Bounds are passed on as bounds.

The test system of one assay is B9 (HRAS Q61L) cell line. Put plainly: B9 P-ERK cell activation assay (AlphaScreen). The class given is cell-based, mouse. As to conditions: Mus musculus, P-ERK cell activation, B9, read-out: Cell activity (EC50 μM) B9_pERK. Here is the method:
(§1) B9 is a squamous cell carcinoma cell line expressing activated HRAS that was isolated from a DMBA/TPA-induced mouse model of skin carcinogenesis (Stoler, et al. The Journal of Cell Biology, 1993, 122(5), 1103-17). IPC-298 is a human melanoma cell line that expresses activated NRAS (Aubert, et al. International Journal of Cancer, 1993, 54(5), 784-92). To determine whether compounds induce phosphorylated ERK and MEK, cells are plated in a 96-well dish and treated with an 8-point titration of compound for one hour at 37° C. The media is then removed and the cells are incubated with lysis buffer containing protease and phosphatase inhibitors. Phosphorylated ERK and MEK in the resulting lysates is detected using AlphaScreen™ technology. To detect phosphorylated ERK, cell lysates are incubated with streptavidin-coated donor beads, anti-mouse IgG acceptor beads, a biotinylated anti-ERK1/2 rabbit antibody, and a mouse antibody that recognizes ERK1/2 only when it is phosphorylated on Thr202 and Tyr204. The biotinylated ERK1/2 antibody will bind to both the streptavidin-coated donor beads and to ERK1/2 (regardless of its phosphorylation state), and the phospho-ERK1/2 antibody will bind to the acceptor beads and to ERK1/2 that is phosphorylated at Thr202/Tyr204. Excitation of the beads with laser light at 680 nm produces singlet oxygen, which is rapidly quenched unless the beads are in close proximity. When ERK is phosphorylated, both antibodies can bind the same protein, bringing the donor and acceptor beads into close proximity, producing a signal that can be measured at 580 nm. MEK phosphorylation is detected using a similar approach, only with antibodies directed against total MEK1/2 and MEK1/2 that is phosphorylated at Ser217 and Ser221.
(§2) Phospho-ERK AlphaScreen® assay. To determine the effects of compound treatment upon phosphorylation of ERK1/2, cells were plated in a 96-well dish and treated with an 8-point titration of compound for one hour at 37° C. before lysis. To detect pERK, cell lysates were incubated with streptavidin-coated AlphaScreen® donor beads, anti-mouse IgG AlphaScreen® acceptor beads, a biotinylated anti-ERK1/2 rabbit antibody, and a mouse antibody that recognizes ERK1/2 only when it is phosphorylated on Thr202 and Tyr204. The biotinylated ERK1/2 antibody binds to both the streptavidin-coated AlphaScreen® donor beads and to ERK1/2 (regardless of its phosphorylation state), and the phospho-ERK1/2 antibody binds to the acceptor beads and to ERK1/2 that is phosphorylated at Thr202/Tyr204. An increase in ERK1/2 phosphorylation at Thr202/Tyr204 brings the donor and acceptor AlphaScreen® beads into close proximity, generating a signal that can be quantified on an EnVision reader (Perkin Elmer).

The target in a further assay is T1, BRAF V600E (Homo sapiens, UniProt P15056, V600E).
T1 construct: purchased Upstate Biotechnology
T1 sequence (P15056 whole entry V600E): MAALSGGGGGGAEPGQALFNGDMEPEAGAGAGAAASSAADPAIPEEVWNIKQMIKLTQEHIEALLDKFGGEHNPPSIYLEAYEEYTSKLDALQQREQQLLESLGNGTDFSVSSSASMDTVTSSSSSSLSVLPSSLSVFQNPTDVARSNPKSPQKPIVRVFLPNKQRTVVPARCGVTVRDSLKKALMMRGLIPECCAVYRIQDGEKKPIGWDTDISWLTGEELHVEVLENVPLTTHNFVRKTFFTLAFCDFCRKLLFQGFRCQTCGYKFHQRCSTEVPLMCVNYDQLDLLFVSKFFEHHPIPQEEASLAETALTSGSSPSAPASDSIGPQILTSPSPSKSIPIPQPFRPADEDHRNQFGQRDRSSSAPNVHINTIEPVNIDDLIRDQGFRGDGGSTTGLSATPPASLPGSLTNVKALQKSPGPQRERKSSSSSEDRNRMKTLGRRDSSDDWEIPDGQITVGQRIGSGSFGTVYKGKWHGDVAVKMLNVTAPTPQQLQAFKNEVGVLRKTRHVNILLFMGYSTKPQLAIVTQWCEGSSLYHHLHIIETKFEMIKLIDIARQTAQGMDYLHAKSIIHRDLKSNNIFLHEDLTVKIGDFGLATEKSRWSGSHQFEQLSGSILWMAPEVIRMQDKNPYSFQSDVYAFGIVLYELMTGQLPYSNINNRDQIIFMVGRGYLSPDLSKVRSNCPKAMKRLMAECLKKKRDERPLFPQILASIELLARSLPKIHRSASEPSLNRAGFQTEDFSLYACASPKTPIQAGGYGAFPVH
The experiment in a line: BRAF V600E biochemical kinase activity assay (AlphaScreen, biotin-MEK1 substrate). As to conditions: BRAF V600E biochemical inhibitory activity. The procedure:
Compounds to be tested are diluted in dimethyl sulfoxide to a concentration of 0.1 mM. These are serially diluted 15 μL into 30 μL of dimethyl sulfoxide seven times in 96 well plates for a total of 8 dilution points, and for each dilution point 1 μL is added to a well of an assay plate. […] The reaction is started with addition of 10 μL of 200 μM ATP (i.e. final 100 μM ATP). After incubation of the kinase reaction for 45 minutes at room temperature, 5 μL/well of Stop Solution is added (25 mM Hepes pH 7.5, 100 mM EDTA, 0.01% BSA with donor beads (Streptavidin coated beads, Perkin Elmer), acceptor beads (Protein A coated, Perkin Elmer), and anti-phosphor MEK1/2 antibody (CellSignal), each at final concentration 10 μg/mL). The plates are incubated for 3 hours at room temperature and read on Envision reader (Perkin Elmer). Phosphorylation of Mek1 results in binding of the anti-phosphor-MEK1/2antibody and association of the donor and acceptor beads such that signal correlates with kinase activity. The signal versus compound concentration is used to determine the IC50.
The in vitro RAF kinase activities were determined by measuring phosphorylation of a biotinylated substrate peptide as described previously (Tsai, J. et al. Proc Natl Acad Sci USA 105, 3041-3046 (2008)). Compounds of formula (I), e.g., compound A, was also tested against a panel of 287 kinases at concentrations of 1 μM in duplicate. Kinases inhibited by over 50% were followed up by IC50 determination. The 287 kinases represent all major branches of the kinome phylogenetic tree. The inhibition screen of 287 kinases was carried out under contract as complementary panels at Invitrogen (Life Technologies, Wis., USA) SelectScreen™ profiling service, DiscoverX (CA, USA) KINOMEScan™ service, and Reaction Biology Corporation (PA, USA) Kinase HotSpot℠ service.

Assay [1] concerns A375 (BRAF V600E) cell line. The experiment in a line: A375 P-ERK inhibition assay (AlphaScreen). Format: cell-based, human. As to conditions: Homo sapiens, A-375; A375_P-ERK. The procedure:
as §2

The test system of assay [2] is IPC-298 (NRAS Q61L) cell line. Put plainly: IPC-298 P-ERK cell activation assay (AlphaScreen). As to conditions: Homo sapiens, P-ERK cell activation, IPC-298, read-out: Cell activity (EC50 μM) IPC-298_P-ERK. The class given is cell-based, human. The procedure: as §1, §2

With `COC(=O)N[C@@H](C)CNc1nccc(-c2nn(C(C)C)cc2-c2cc(Cl)cc(NS(=O)(=O)C3CC3)c2F)n1` [P-2170, methyl N-[(1S)-2-[[4-[4-[5-chloro-3-(cyclopropylsulfonylamino)-2-fluoro-phenyl]-1-isopropyl-pyrazol-3-yl]pyrimidin-2-yl]amino]-1-methyl-ethyl]carbamate], the concentration for a half-maximal effect (EC50) (with B9 (HRAS Q61L) cell line (class symbols); in assay [2] (class symbols)) was 0.0001 to 1 µM in each case. The IC50 (at BRAF V600E; in assay [1]) was 0.0001 to 1 µM throughout.

With `CCC(C)S(=O)(=O)Nc1ccc(F)c(C(=O)c2c[nH]c3nccc(Cl)c23)c1F` (stereo not drawn) [P-2016, N-[3-(4-chloro-1H-pyrrolo[2,3-b]pyridine-3-carbonyl)-2,4-difluoro-phenyl]butane-2-sulfonamide], the EC50 (in the assay on B9 (HRAS Q61L) cell line (numeric bounds); in assay [2] (numeric bounds)) was above 10 µM each time. Also, the IC50 (against BRAF V600E; in assay [1]) was 0.0001 to 1 µM in each case.

Consider `O=C(c1c(F)ccc(NS(=O)(=O)C2CCCCC2)c1F)c1c[nH]c2ncncc12` [P-2027, N-[2,4-difluoro-3-(7H-pyrrolo[2,3-d]pyrimidine-5-carbonyl)phenyl]cyclohexanesulfonamide], for which the EC50 (with B9 (HRAS Q61L) cell line (numeric bounds); in assay [2] (numeric bounds)) was above 10 µM each time. Also, the IC50 (on BRAF V600E; in assay [1]) was 0.0001 to 1 µM each time.

As to `O=C(c1cccc(NS(=O)(=O)N2CCCC2)c1F)c1c[nH]c2ncncc12` [P-2032, N-[2-fluoro-3-(7H-pyrrolo[2,3-d]pyrimidine-5-carbonyl)phenyl]pyrrolidine-1-sulfonamide], the EC50 (in the assay with B9 (HRAS Q61L) cell line (numeric bounds); in assay [2] (numeric bounds)) was above 10 µM in each case. Further, the IC50 (at BRAF V600E; in assay [1]) was 0.0001 to 1 µM in each case.

Regarding `NCCNc1ncnc2[nH]cc(C(=O)c3cccc(NS(=O)(=O)N4CCCC4)c3F)c12` [P-2102, N-[3-[4-(2-aminoethylamino)-7H-pyrrolo[2,3-d]pyrimidine-5-carbonyl]-2-fluoro-phenyl]pyrrolidine-1-sulfonamide], the EC50 (in the assay with B9 (HRAS Q61L) cell line (numeric bounds); in assay [2] (numeric bounds)) was above 10 µM throughout. Besides, the IC50 against BRAF V600E was 0.0001 to 1 µM; in assay [1], 1 to 10 µM.

As for `COc1ccnc2[nH]cc(C(=O)c3c(F)ccc(NS(=O)(=O)N4CCCC4)c3F)c12` [Compound P-2003, N-[2,4-difluoro-3-(4-methoxy-1H-pyrrolo[2,3-b]pyridine-3-carbonyl)phenyl]pyrrolidine-1-sulfonamide], the EC50 (with B9 (HRAS Q61L) cell line (numeric bounds); in assay [2] (numeric bounds)) was above 10 µM throughout. The IC50 (against BRAF V600E; in assay [1]) was 0.0001 to 1 µM in each case.

With `COC(=O)N[C@@H](C)CNc1nccc(-c2cn(C(C)C)nc2-c2cc(Cl)cc(NS(=O)(=O)N3CCCCC3)c2F)n1` [P-2181, methyl N-[(1S)-2-[[4-[3-[5-chloro-2-fluoro-3-(1-piperidylsulfonylamino)phenyl]-1-isopropyl-pyrazol-4-yl]pyrimidin-2-yl]amino]-1-methyl-ethyl]carbamate], the figures for the EC50 (in the assay with B9 (HRAS Q61L) cell line (numeric bounds); in assay [2] (class symbols)) were above 10 µM and 0.0001 to 1 µM, respectively. Further, the IC50 (on BRAF V600E; in assay [1]) was 0.0001 to 1 µM each time.

`CCC(C)S(=O)(=O)Nc1cccc(-c2nc(C(C)(C)C)sc2-c2ccnc(N)n2)c1F` (stereo not drawn) [P-2106, N-[3-[5-(2-aminopyrimidin-4-yl)-2-tert-butyl-thiazol-4-yl]-2-fluoro-phenyl]butane-2-sulfonamide]: the EC50 (in the assay with B9 (HRAS Q61L) cell line (numeric bounds); in assay [2] (numeric bounds)) was above 10 µM throughout. The IC50 (at BRAF V600E; in assay [1]) was 0.0001 to 1 µM throughout.

On to `CCCC(C)S(=O)(=O)Nc1ccc(F)c(C(=O)c2c[nH]c3nccc(OC)c23)c1F` (stereo not drawn) [Compound P-2009, N-[2,4-difluoro-3-(4-methoxy-1H-pyrrolo[2,3-b]pyridine-3-carbonyl)phenyl]pentane-2-sulfonamide], for which the EC50 (in the assay on B9 (HRAS Q61L) cell line (numeric bounds); in assay [2] (numeric bounds)) was above 10 µM each time. Besides, the IC50 was in the range of 0.0001 to 1 µM at BRAF V600E and 1 to 10 µM in assay [1].

As to `O=C(c1cc(F)cc(NS(=O)(=O)N2CC[C@@H](F)C2)c1F)c1c[nH]c2ncc(-c3cnc(C4CC4)nc3)cc12` [P-2172, (3R)—N-[3-[5-(2-cyclopropylpyrimidin-5-yl)-1H-pyrrolo[2,3-b]pyridine-3-carbonyl]-2,5-difluoro-phenyl]-3-fluoro-pyrrolidine-1-sulfonamide], the EC50 was above 1 µM with B9 (HRAS Q61L) cell line (numeric bounds) and above 10 µM in assay [2] (numeric bounds). The IC50 (against BRAF V600E; in assay [1]) was 0.0001 to 1 µM throughout.

With `O=C(c1c(F)ccc(NS(=O)(=O)N2CCOCC2)c1F)c1c[nH]c2ncnc(NCC3CC3)c12` [P-2054, N-[3-[4-(cyclopropylmethylamino)-7H-pyrrolo[2,3-d]pyrimidine-5-carbonyl]-2,4-difluoro-phenyl]morpholine-4-sulfonamide], the EC50 (in the assay on B9 (HRAS Q61L) cell line (numeric bounds); in assay [2] (numeric bounds)) was above 10 µM each time. The IC50 (against BRAF V600E; in assay [1]) was 0.0001 to 1 µM in each case.

For the molecule `COC(=O)N[C@@H](C)CNc1nccc(-c2sc(-c3ccccc3)nc2-c2cccc(NS(=O)(=O)N3CC[C@H](F)C3)c2F)n1` [P-2153, methyl N-[(1S)-2-[[4-[4-[2-fluoro-3-[[(3S)-3-fluoropyrrolidin-1-yl]sulfonylamino]phenyl]-2-phenyl-thiazol-5-yl]pyrimidin-2-yl]amino]-1-methyl-ethyl]carbamate], the EC50 (in the assay with B9 (HRAS Q61L) cell line (class symbols); in assay [2] (class symbols)) was 0.0001 to 1 µM in each case. For the same molecule, the IC50 (on BRAF V600E; in assay [1]) was 0.0001 to 1 µM each time.

As to `Cc1cc2c(-c3sc(C(C)(C)C)nc3-c3cccc(NS(=O)(=O)N4CCCC4)c3F)ncnc2[nH]1` [P-2123, N-[3-[2-tert-butyl-5-(6-methyl-7H-pyrrolo[2,3-d]pyrimidin-4-yl)thiazol-4-yl]-2-fluoro-phenyl]pyrrolidine-1-sulfonamide], the 50% effective concentration (EC50) (with B9 (HRAS Q61L) cell line (numeric bounds); in assay [2] (numeric bounds)) was above 10 µM throughout. Besides, the IC50 (against BRAF V600E; in assay [1]) was 0.0001 to 1 µM in each case.

Regarding `O=C(c1cccc(NS(=O)(=O)N2CCCC2)c1F)c1c[nH]c2ncnc(NCCN3CCOCC3)c12` [P-2110, N-[2-fluoro-3-[4-(2-morpholinoethylamino)-7H-pyrrolo[2,3-d]pyrimidine-5-carbonyl]phenyl]pyrrolidine-1-sulfonamide], the EC50 (in the assay on B9 (HRAS Q61L) cell line (numeric bounds); in assay [2] (numeric bounds)) was above 10 µM each time. Moreover, the IC50 (at BRAF V600E; in assay [1]) was 0.0001 to 1 µM each time.

On to `COc1ccnc2[nH]cc(C(=O)c3c(F)ccc(NS(=O)(=O)N(C)C)c3F)c12` [Compound P-2002, 3-[3-(dimethylsulfamoylamino)-2,6-difluoro-benzoyl]-4-methoxy-1H-pyrrolo[2,3-b]pyridine], for which the EC50 (with B9 (HRAS Q61L) cell line (numeric bounds); in assay [2] (numeric bounds)) was above 10 µM throughout. The IC50 (on BRAF V600E; in assay [1]) was 0.0001 to 1 µM throughout.
